Measured values: ChEMBL document CHEMBL6182916, “Unexpected Discovery of a Novel Triphenylphosphonium Alkylalcohol That Triggers Cancer Cell Death via Mitophagy and Ferroptosis” (J Med Chem, 2025)
The source made the active and inactive calls. No cut-off for these calls is given here.

Legend:
[1] = Antiproliferative activity against human BEAS-2B cells assessed as inhibition of cell growth measured after 72 hrs by MTT assay; format: toxicity, cell-based
[2] = system: HCC827; assay: Induction of mitochondrial dysfunction in human HCC827 cells assessed as cytochrome C release in cytoplasm at 0.4 uM by laser scanning confocal fluorescence microscopic analysis; format: functional, cell-based; conditions: time 24-72 hrs
[3] = system: HCC827; assay: Induction of ferroptosis in human HCC827 cells assessed as decrease in GPX4 expression incubated for 24 hrs; format: functional, cell-based; conditions: dose 0.25-0.5 µM
[4] = system: HCC827; assay: Antiproliferative activity against human HCC827 cells assessed as inhibition of cell growth measured after 72 hrs by MTT assay; format: functional, cell-based; conditions: HCC827, 72 h
[5] = system: HCC827; assay: Induction of ROS generation in human HCC827 cells assessed as green fluorescence intensity at 1 uM incubated for 24 hrs by DCFH-DA staining based by absorbance based laser confocal microscopic analysis; format: functional, cell-based
[6] = Toxicity in female BALB/c mouse assessed as histopathological changes in lung at 30 mg/kg, ip measured for 7 days by H and E staining based analysis; format: organism-based; conditions: in vivo, 168 h, time 7 day
[7] = system: HeLa; assay: Induction of mitophagy in human HeLa cells assessed as colocalization of mitochondria and lysosomes at 0.5 uM by mitoGFP staining based confocal microscopy analysis; format: functional, cell-based
[8] = Toxicity in female BALB/c mouse assessed as histopathological changes in kidney at 30 mg/kg, ip measured for 7 days by H and E staining based analysis; format: organism-based; conditions: in vivo, 168 h, time 7 day
[9] = system: HCC827; assay: Induction of mitochondrial dysfunction in human HCC827 cells assessed as cytochrome C release in cytoplasm at 0.4 uM measured after 72 hrs by laser scanning confocal fluorescence microscopic analysis; format: functional, cell-based
[10] = system: A-375; assay: Antiproliferative activity against human A-375 cells assessed as inhibition of cell growth measured after 72 hrs by MTT assay; format: functional, cell-based; conditions: A-375, 72 h
[11] = system: HCC827; assay: Induction of apoptosis in human HCC827 cells assessed as necrotic cells at 0.5 uM measured after 48 hrs by annexin V and PI staining based flow cytometry analysis (reference value: 1.18%); format: functional
[12] = system: Mitochondrial membrane; assay: Induction of mitochondrial membrane depolarization in human BEAS-2B cells assessed as increase in JC-1 monomer ratio at 0.25 to 0.5 uM incubated for 4 hrs by JC-1 staining based confocal microscopy analysis; format: cell membranes; conditions: dose 0.25-0.5 µM
[13] = system: HCC827; assay: Induction of ferroptosis in human HCC827 cells assessed as increase in MDA content incubated for 24 hrs by absorbance based analysis; format: functional, cell-based; conditions: dose 0.25-0.5 µM
[14] = system: HCC827; assay: Induction of apoptosis in human HCC827 cells assessed as viable cells at 1 uM measured after 36 hrs by annexin V and PI staining based flow cytometry analysis (reference value: 95.10%); format: functional; conditions: read-out: Activity
[15] = system: HCC827; assay: Induction of ROS generation in human HCC827 cells at 1 uM incubated for 4 hrs in presence of NAC by DCFH-DA staining based by absorbance based laser confocal microscopic analysis; format: functional, cell-based
[16] = system: HCC827; assay: Downregulation of TOMM20 expression level in human HCC827 cells at 0.5 uM by Western blot analysis; format: functional, cell-based; conditions: time 3-24 hrs
[17] = system: HCC827; assay: Antimetastatic activity against human HCC827 cells xenografted in female nude mouse model assessed as decrease in snail level at 5 to 10 mg/kg, ip by Western blot analysis; format: functional, organism-based; conditions: dose 5-10 mg/kg
[18] = Toxicity in male Kunming mouse assessed as animal death at 70 mg/kg, ip measured every two days for 7 days; format: organism-based; conditions: in vivo, 168 h, time 7 day
[19] = system: HCC827; assay: Downregulation of TOMM20 expression level in human HCC827 cells at 0.5 uM incubated for 24 hrs in presence of Baf A1 by Western blot analysis; format: functional, cell-based
[20] = system: HeLa; assay: Induction of mitophagy in human HeLa cells harbouring mCherry-GFP tag assessed as reduction in GFP fluorescence at 0.5 uM incubated for 24 hrs by confocal microscopy analysis; format: functional, cell-based
[21] = system: HCC827; assay: Downregulation of SDHB protein level in human HCC827 cells at 0.25 to 0.5 uM measured after 12 hrs; format: functional, cell-based; conditions: dose 0.25-0.5 µM
[22] = Antiproliferative activity against HEK293T cells assessed as inhibition of cell growth measured after 72 hrs by MTT assay; format: toxicity, cell-based, HEK-293T; conditions: human
[23] = system: HCC827; assay: Induction of apoptosis in human HCC827 cells assessed as early apoptotic cells at 0.5 uM measured after 48 hrs by annexin V and PI staining based flow cytometry analysis (reference value: 0.70%); format: functional
[24] = system: HCC827; assay: Induction of mitochondrial dysfunction in human HCC827 cells assessed as suppression of ATP production incubated for 4 hrs by Seahorse XF96 extracellular flux analyzer; format: functional, cell-based; conditions: dose 0.125-5 µM
[25] = system: HCC827; assay: Induction of mitophagy in human HCC827 cells assessed as increase in LC3-II/LC-3-I ratio at 0.5 uM measured after 24 hrs in presence of Baf A1 by Western blot analysis; format: functional, cell-based
[26] = system: HCC827; assay: Induction of ROS generation in human HCC827 cells assessed as increase in superoxide anion level by measuring increase in red fluorescence intensity at 1 uM incubated for 4 hrs by laser scanning confocal fluorescence microscopic analysis; format: functional, cell-based
[27] = system: BEAS-2B; assay: Induction of mitochondrial dysfunction in human BEAS-2B cells assessed as decrease in ATP production at 0.125 to 5 uM incubated for 4 hrs by Seahorse XF96 extracellular flux analyzer; format: functional, cell-based; conditions: dose 0.125-5 µM
[28] = system: BEAS-2B; assay: Inhibition of colony formation in human BEAS-2B cells at 0.05 to 0.1 uM incubated for 72 hrs by crystal violet staining based analysis; format: functional, cell-based; conditions: dose 0.05-0.1 µM
[29] = system: HCC827; assay: Effect on ATP5A expression in human HCC827 cells at 0.25 to 0.5 uM; format: functional, cell-based; conditions: dose 0.25-0.5 µM
[30] = system: Osimertinib-resistant NCI-H1975 cell; assay: Antiproliferative activity against human Osimertinib-resistant NCI-H1975 cell assessed as inhibition of cell growth measured after 72 hrs by MTT assay; format: functional, cell-based
[31] = Toxicity in female Kunming mouse assessed as change in body weight at 50 mg/kg, ip measured every two days for 7 days; format: organism-based; conditions: in vivo, 168 h, time 7 day
[32] = system: HCC827; assay: Downregulation of VDAC1 expression level in human HCC827 cells 0.5 uM incubated for 3 to 24 hrs in presence of BFA by Western blot analysis; format: functional, cell-based; conditions: time 3-24 hrs
[33] = system: HCC827; assay: Induction of apoptosis in human HCC827 cells assessed as late apoptotic cells at 1 uM measured after 36 hrs by annexin V and PI staining based flow cytometry analysis (reference value: 2.18%); format: functional
[34] = system: A549; assay: Antiproliferative activity against human A549 cells assessed as inhibition of cell growth measured after 72 hrs by MTT assay; format: functional, cell-based; conditions: A549, 72 h
[35] = system: HCC827; assay: Antiproliferative activity against human HCC827 cells assessed as increase in cell viability at 1 uM measured after 48 hrs in presence of Rapa by MTT assay; format: functional, cell-based
[36] = Toxicity in male Kunming mouse assessed as change in body weight at 50 mg/kg, ip measured every two days for 7 days; format: organism-based; conditions: in vivo, 168 h, time 7 day
[37] = system: HCC827; assay: Induction of mitochondrial dysfunction in human HCC827 cells assessed as suppression of basal respiration incubated for 4 hrs by Seahorse XF96 extracellular flux analyzer; format: functional, cell-based; conditions: dose 0.125-5 µM
[38] = system: HCC827; assay: Antiproliferative activity against human HCC827 cells assessed as cell viability preincubated with Nec followed by compound addition and measured after 48 hrs by MTT assay; format: functional, cell-based

With Cc1ccc([P+](CCCCCCCCCCO)(c2ccc(C)cc2)c2ccc(C)cc2)cc1.[Br-] the IC50 at 72 h [1] was 1420 nM, the Activity [2] was “Time-dependent-effect” and the Activity [3] was “Dose-dependent-effect”. The IC50 [4] was 70 nM, the Activity [5] was “Active” and the Activity [6] was “Non-toxic”. The Activity [7] was “Active”, the Activity [8] was “Non-toxic” and the Activity [9] was “Active”. The IC50 [10] was 140 nM, the Activity [11] was 2.09% and the Activity [12] was “inactive”. For the same compound, the Activity [13] was “Dose-dependent-effect”, the viability at 1 µM [14] was 98.5% and the Activity [15] was “inactive”. The Activity [16] was “Time-dependent-effect”, the Activity [17] was “Active” and the Activity [18] was “Toxic”. The Activity [19] was “inactive”, the Activity [20] was “Active” and the Activity [21] was “Active”. For the same compound, the IC50 at 72 h [22] was 1520 nM, the Activity [23] was 2.34% and the Activity [24] was “Dose-dependent-effect”. The Activity [25] was “inactive”, the Activity [26] was “Active” and the Activity [27] was “Minimal_effect”. The inhibition [28] was “Minimal_effect”, the Activity [29] was “Active” and the IC50 [30] was 230 nM. For the same compound, the Activity [31] was “Toxic”, the Activity [32] was “inactive” and the Activity [33] was 0.32%. The IC50 [34] was 490 nM, the Activity [35] was “inactive” and the Activity [36] was “Toxic”. For the same compound, the Activity [37] was “Dose-dependent-effect” and the IC50 [38] was 130 nM.
